Key:
[1] = tested on: galium; experiment: Test C postemergence; assay type: in vivo, Galium aparine; conditions: 10 days
How it was run: (§1)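 Greenhouse herbicide screen, 10-day duration. Test chemicals in solvent/surfactant blend were sprayed onto soil at sowing (pre) or onto 2–10 cm seedlings at one to two leaves (post); injury scored visually against controls, 0 no effect to 100 complete control.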

[2] = tested on: pigweed, palmer; experiment: Test C preemergence; assay type: in vivo, Amaranthus palmeri; conditions: 0 to 100 scale (0 no effect, 100 complete control); for Plant response rating, Pigweed, Palmer: Preemergence, 500 g ai/ha, visual rating after 10 days; for Pigweed, Palmer plant response rating: Test C, preemergence, 125 g ai/ha
How it was run: as §1

[3] = tested on: soybean; experiment: Test C postemergence; assay type: in vivo, Glycine max; conditions: 10 days
How it was run: as §1

[4] = tested on: soybean; experiment: Test C preemergence; assay type: in vivo, Glycine max; conditions: 0 to 100 scale (0 no effect, 100 complete control); for Plant response rating, Soybean: Preemergence, 500 g ai/ha, visual rating after 10 days; for Soybean plant response rating: Test C, preemergence, 125 g ai/ha
How it was run: as §1

[5] = tested on: ducksalad; experiment: Test D flooded paddy test; assay type: in vivo, Heteranthera limosa; conditions: 250 g ai/ha, applied to paddy water, visual rating after 13 to 14 days, scale 0 to 100 (0 no effect, 100 complete control)
How it was run: (§2)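 2-leaf plants; flood 3 cm above soil; compound dosed into paddy water; greenhouse 13–14 d; visual rating vs controls, 0–100 (100 = complete control); dash = not tested.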

[6] = tested on: pigweed, palmer; experiment: Test C postemergence; assay type: in vivo, Amaranthus palmeri; conditions: 10 days
How it was run: as §1

[7] = tested on: kochia; experiment: Test C preemergence; assay type: in vivo, Bassia scoparia; conditions: 0 to 100 scale (0 no effect, 100 complete control); for Plant response rating, Kochia: Preemergence, 500 g ai/ha, visual rating after 10 days; for Kochia plant response rating: Test C, preemergence, 125 g ai/ha
How it was run: as §1

[8] = tested on: blackgrass; experiment: Test C postemergence; assay type: in vivo, Alopecurus myosuroides; conditions: 10 days
How it was run: as §1

[9] = tested on: ragweed; experiment: Test C postemergence; assay type: in vivo, Ambrosia artemisiifolia; conditions: 10 days
How it was run: as §1

[10] = tested on: horseweed; experiment: Test C postemergence; assay type: in vivo, Erigeron canadensis; conditions: 10 days
How it was run: as §1

[11] = tested on: blackgrass; experiment: Test C preemergence; assay type: in vivo, Alopecurus myosuroides; conditions: 0 to 100 scale (0 no effect, 100 complete control); for Plant response rating, Blackgrass: Preemergence, 500 g ai/ha, visual rating after 10 days; for Blackgrass plant response rating: Test C, preemergence, 125 g ai/ha
How it was run: as §1

[12] = tested on: kochia; experiment: Test C postemergence; assay type: in vivo, Bassia scoparia; conditions: 10 days
How it was run: as §1

[13] = tested on: ryegrass, Italian; experiment: Test C postemergence; assay type: in vivo, Lolium multiflorum; conditions: 10 days
How it was run: as §1

[14] = tested on: rice; experiment: Test D flooded paddy test; assay type: in vivo, Oryza sativa; conditions: 250 g ai/ha, applied to paddy water, visual rating after 13 to 14 days, scale 0 to 100 (0 no effect, 100 complete control)
How it was run: as §2

[15] = tested on: ryegrass, Italian; experiment: Test C preemergence; assay type: in vivo, Lolium multiflorum; conditions: 0 to 100 scale (0 no effect, 100 complete control); for Plant response rating, Ryegrass, Italian: Preemergence, 500 g ai/ha, visual rating after 10 days; for Ryegrass, Italian plant response rating: Test C, preemergence, 125 g ai/ha
How it was run: as §1

[16] = tested on: ragweed; experiment: Test C preemergence; assay type: in vivo, Ambrosia artemisiifolia; conditions: 0 to 100 scale (0 no effect, 100 complete control); for Plant response rating, Ragweed: Preemergence, 500 g ai/ha, visual rating after 10 days; for Ragweed plant response rating: Test C, preemergence, 125 g ai/ha
How it was run: as §1

[17] = tested on: oat, wild; experiment: Test C preemergence; assay type: in vivo, Avena fatua; conditions: 0 to 100 scale (0 no effect, 100 complete control); for Plant response rating, Oat, Wild: Preemergence, 500 g ai/ha, visual rating after 10 days; for Oat, Wild plant response rating: Test C, preemergence, 125 g ai/ha
How it was run: as §1

[18] = tested on: corn; experiment: Test C postemergence; assay type: in vivo, Zea mays; conditions: 10 days
How it was run: as §1

[19] = tested on: corn; experiment: Test C preemergence; assay type: in vivo, Zea mays; conditions: 0 to 100 scale (0 no effect, 100 complete control); for Plant response rating, Corn: Preemergence, 500 g ai/ha, visual rating after 10 days; for Corn plant response rating: Test C, preemergence, 125 g ai/ha
How it was run: as §1

[20] = tested on: barnyardgrass; experiment: Test C postemergence; assay type: in vivo, Echinochloa crusgalli; conditions: 10 days
How it was run: as §1

[21] = tested on: sedge, umbrella; experiment: Test D flooded paddy test; assay type: in vivo, Cyperus difformis; conditions: 250 g ai/ha, applied to paddy water, visual rating after 13 to 14 days, scale 0 to 100 (0 no effect, 100 complete control)
How it was run: as §2

[22] = tested on: barnyardgrass; experiment: Test D flooded paddy test; assay type: in vivo, Echinochloa crus-galli; conditions: 250 g ai/ha, applied to paddy water, visual rating after 13 to 14 days, scale 0 to 100 (0 no effect, 100 complete control)
How it was run: as §2

[23] = tested on: green foxtail; experiment: Test C preemergence; assay type: in vivo, Setaria viridis; conditions: 0 to 100 scale (0 no effect, 100 complete control); for Plant response rating, Foxtail, Green: Preemergence, 500 g ai/ha, visual rating after 10 days; for Foxtail, Green plant response rating: Test C, preemergence, 125 g ai/ha
How it was run: as §1

[24] = tested on: green foxtail; experiment: Test C postemergence; assay type: in vivo, Setaria viridis; conditions: 10 days
How it was run: as §1

[25] = tested on: wheat; experiment: Test C postemergence; assay type: in vivo, Triticum aestivum; conditions: 10 days
How it was run: as §1

[26] = tested on: wheat; experiment: Test C preemergence; assay type: in vivo, Triticum aestivum; conditions: 0 to 100 scale (0 no effect, 100 complete control); for Plant response rating, Wheat: Preemergence, 500 g ai/ha, visual rating after 10 days; for Wheat plant response rating: Test C, preemergence, 125 g ai/ha
How it was run: as §1

[27] = tested on: oat, wild; experiment: Test C postemergence; assay type: in vivo, Avena fatua; conditions: 10 days
How it was run: as §1

[28] = tested on: barnyardgrass; experiment: Test C preemergence; assay type: in vivo, Echinochloa crusgalli; conditions: 0 to 100 scale (0 no effect, 100 complete control); for Plant response rating, Barnyardgrass: Preemergence, 500 g ai/ha, visual rating after 10 days; for Barnyardgrass plant response rating: preemergence, 125 g ai/ha
How it was run: as §1

[29] = 125 g ai/ha, postemergence, 0 to 100 scale, 0 no effect, 100 complete control
[30] = Postemergence, 500 g ai/ha, visual 0 to 100 scale (0 no effect, 100 complete control)

COc1c(F)cc(-n2cnc(C(C)C)n2)cc1C(=O)N1C[C@H](C)Oc2c(Cl)cccc21 [Compound 177]
Plant response rating, Galium [1, 29]: 90 | Plant response rating, Galium [1, 30]: 100 | Plant response rating, Pigweed, Palmer [2]: 100 | Pigweed, Palmer plant response rating [2]: 100 | Plant response rating, Soybean [3, 29]: 100 | Plant response rating, Soybean [3, 30]: 100 | Plant response rating, Soybean [4]: 90 | Soybean plant response rating [4]: 60 | Plant response rating, Ducksalad (Flood) [5]: 50 | Plant response rating, Pigweed, Palmer [6, 29]: 90 | Plant response rating, Pigweed, Palmer [6, 30]: 100 | Plant response rating, Kochia [7]: 100 | Kochia plant response rating [7]: 80 | Plant response rating, Blackgrass [8, 29]: 90 | Plant response rating, Blackgrass [8, 30]: 90 | Plant response rating, Ragweed [9, 29]: 80 | Plant response rating, Ragweed [9, 30]: 70 | Plant response rating, Horseweed [10, 29]: 30 | Plant response rating, Horseweed [10, 30]: 80 | Plant response rating, Blackgrass [11]: 60 | Blackgrass plant response rating [11]: 40 | Plant response rating, Kochia [12, 29]: 90 | Plant response rating, Kochia [12, 30]: 100 | Plant response rating, Ryegrass, Italian [13, 29]: 80 | Plant response rating, Ryegrass, Italian [13, 30]: 90 | Plant response rating, Rice (Flood) [14]: 0 | Plant response rating, Ryegrass, Italian [15]: 100 | Ryegrass, Italian plant response rating [15]: 100 | Plant response rating, Ragweed [16]: 90 | Ragweed plant response rating [16]: 90 | Plant response rating, Oat, Wild [17]: 90 | Oat, Wild plant response rating [17]: 80 | Plant response rating, Corn [18, 29]: 40 | Plant response rating, Corn [18, 30]: 60 | Plant response rating, Corn [19]: 30 | Corn plant response rating [19]: 30 | Plant response rating, Barnyardgrass [20, 29]: 30 | Plant response rating, Barnyardgrass [20, 30]: 70 | Plant response rating, Sedge, Umbrella (Flood) [21]: 95 | Plant response rating, Barnyardgrass (Flood) [22]: 35 | Plant response rating, Foxtail, Green [23]: 100 | Foxtail, Green plant response rating [23]: 100 | Plant response rating, Foxtail, Green [24, 29]: 90 | Plant response rating, Foxtail, Green [24, 30]: 90 | Plant response rating, Wheat [25, 29]: 30 | Plant response rating, Wheat [25, 30]: 50 | Plant response rating, Wheat [26]: 60 | Wheat plant response rating [26]: 30 | Plant response rating, Oat, Wild [27, 29]: 60 | Plant response rating, Oat, Wild [27, 30]: 80 | Plant response rating, Barnyardgrass [28]: 100 | Barnyardgrass plant response rating ([28]; Test C): 100

Cc1ccc(-n2cnc(C3(C)CCC3)n2)cc1C(=O)N1C[C@H](C)Oc2c(Cl)cccc21 [Compound 167]
Plant response rating, Galium [1, 29]: 90 | Plant response rating, Galium [1, 30]: 100 | Plant response rating, Pigweed, Palmer [2]: 100 | Pigweed, Palmer plant response rating [2]: 100 | Plant response rating, Soybean [3, 29]: 100 | Plant response rating, Soybean [3, 30]: 100 | Plant response rating, Soybean [4]: 80 | Soybean plant response rating [4]: 40 | Plant response rating, Ducksalad (Flood) [5]: 0 | Plant response rating, Pigweed, Palmer [6, 29]: 90 | Plant response rating, Pigweed, Palmer [6, 30]: 100 | Plant response rating, Kochia [7]: 100 | Kochia plant response rating [7]: 90 | Plant response rating, Blackgrass [8, 29]: 0 | Plant response rating, Blackgrass [8, 30]: 70 | Plant response rating, Ragweed [9, 29]: 90 | Plant response rating, Ragweed [9, 30]: 90 | Plant response rating, Horseweed [10, 29]: 10 | Plant response rating, Horseweed [10, 30]: 30 | Plant response rating, Blackgrass [11]: 70 | Blackgrass plant response rating [11]: 30 | Plant response rating, Kochia [12, 29]: 90 | Plant response rating, Kochia [12, 30]: 100 | Plant response rating, Ryegrass, Italian [13, 29]: 20 | Plant response rating, Ryegrass, Italian [13, 30]: 80 | Plant response rating, Rice (Flood) [14]: 0 | Plant response rating, Ryegrass, Italian [15]: 90 | Ryegrass, Italian plant response rating [15]: 80 | Plant response rating, Ragweed [16]: 80 | Ragweed plant response rating [16]: 10 | Plant response rating, Oat, Wild [17]: 50 | Oat, Wild plant response rating [17]: 20 | Plant response rating, Corn [18, 29]: 10 | Plant response rating, Corn [18, 30]: 20 | Plant response rating, Corn [19]: 0 | Corn plant response rating [19]: 0 | Plant response rating, Barnyardgrass [20, 29]: 20 | Plant response rating, Barnyardgrass [20, 30]: 60 | Plant response rating, Sedge, Umbrella (Flood) [21]: 0 | Plant response rating, Barnyardgrass (Flood) [22]: 0 | Plant response rating, Foxtail, Green [23]: 100 | Foxtail, Green plant response rating [23]: 100 | Plant response rating, Foxtail, Green [24, 29]: 50 | Plant response rating, Foxtail, Green [24, 30]: 90 | Plant response rating, Wheat [25, 29]: 10 | Plant response rating, Wheat [25, 30]: 20 | Plant response rating, Wheat [26]: 0 | Wheat plant response rating [26]: 0 | Plant response rating, Oat, Wild [27, 29]: 0 | Plant response rating, Oat, Wild [27, 30]: 20 | Barnyardgrass plant response rating [28]: 90 | Plant response rating, Barnyardgrass [28]: 100

— patent US20260262643A1, “HERBICIDAL BENZOXAZINES” (FMC CORPORATION, priority 2022, published 2026)
